Measurements published in patent US11278521B2, “GAS5 binding compounds, formulations, and uses thereof” (UNIVERSITY OF SOUTH FLORIDA, priority 2015, dated 2022).
Entries after “also recorded” stand apart in the source; their conditions may differ.

Legend:
GAS5 [1] = test: screen of γ-AApeptide one-bead-one-compound combinatorial library with fluorescein tagged GAS5 oligonucleotide probe and validation; type: binding; conditions: positive beads from screen of 160,000 molecules, tRNA as control
Excerpt: The interaction between UPF1 and GAS5 was disrupted using a γ-AApeptide based one-bead-one-compound (OBOC) combinatorial library (Wu H, Li Y, Bai G, Niu Y, Qiao Q, Tipton J D, Cao C, Cai J. gamma-AApeptide-based small-molecule ligands that inhibit Abeta aggregation. Chemical communications. 2014; 50(40):5206-8. doi: 10.1039/c3cc46685j. PubMed PMID: 24158240). The γ-AApeptide is a peptidomimetic with side chains for chemical diversity and are resistant to proteolytic cleavage. To screen the compound library, a probe that contained a fluorescein tagged oligonucleotide was synthesized. The probe spanned 30 nucleotides on either side of the UAA sequences on GAS5 (FIG. 2) The fluorescein was attached to the 5′end (beginning of oligonucleotide probe sequence). The nucleotide sequence within the GAS5 IncRNA that the oligonucleotide probe binds to can be about 100% identical to […] […]
The length of oligonucleotide was required to maintain stem loop structure to specifically bind to GAS5. […] The compound having a structure according to Formula 3 was determined to have a chemical formula of C68H92N10O9S, a mass of about 1224.6769, and a molecular weight of 1225.6050. The compound having a structure according to Formula 14 was determined to have a chemical formula of C63H85N9O13S, a mass of about 1207.5988, and a molecular weight of 1208.4830.

GAS5 transcript = test: RNA-EMSA (REMSA) with biotin-labeled in vitro transcribed GAS5; type: binding; conditions: 0.1 nM biotin-labeled GAS5, 10 nM compound, 10U yeast tRNA, 20 min at room temperature
Protocol: RNA-EMSA was performed as previously described (see e.g. Apostolatos, H., Apostolatos, A., Vickers, T., Watson, J. E., Song, S., Vale, F., Cooper, D. R., Sanchez-Ramos, J., and Patel, N. A. (2010) Vitamin A metabolite, all-trans-retinoic acid, mediates alternative splicing of protein kinase C deltaVIII (PKCdeltaVIII) isoform via splicing factor SC35. J Biol Chem 285, 25987-25995 and Patel, R. S., Carter, G., Cooper, D. R., Apostolatos, H., and Patel, N. A. (2014) Transformer 2beta homolog (Drosophila) (TRA2B) regulates protein kinase C deltal (PKCdeltal) splice variant expression during 3T3L1 preadipocyte cell cycle. J Biol Chem 289, 31662-31672.
Briefly, GAS5 was cloned in TOPO vector which has the T7 promoter. In vitro transcription assay was performed with biotin-label using RiboScribe kit using T7 RNA polymerase at 37° C. for 2 h in the presence of nucleotides, RNase inhibitor, and 5× transcription buffer. 0.1 nM of transcribed, biotin-labeled GAS5 was incubated with 10 nM G5-1397 in presence of 10U yeast tRNA and 10 units of RNase inhibitor in a final volume of 10 μl of RNA shift buffer for 20 min at room temperature and detected using Biotin Chromogenic Detection kit (ThermoFisher). […] Using the same assay, compounds according to Formulas 4-19 were also observed to bind GAS5 long non-coding RNA.

DM adipocytes = test: cell viability assay after treatment with compound; type: cell-based; conditions: DM adipocytes treated with compound, cell viability assay (FIG. 3B)
GAS5 [2] = test: GAS5 levels in DM adipocytes by SYBR Green qPCR; type: cell-based; conditions: 20 nM, about 24 hours
Protocol: Strategy for compound design: GAS5 transcript may be targeted to faster turnover by nonsense mediated RNA decay. GAS5 transcript has a premature termination codon which renders greater susceptibility for nonsense mediated RNA decay. […] GAS5 and UPF1 levels were measured in NDM and DM adipocytes.
DM adipocytes were treated with G5-1397 (20 nM) for about 24 hours. GAS5 levels were measured using SYBR Green qPCR.

SMILES	ability to bind GAS5 (GAS5 [1])	binding to GAS5 transcript (GAS5 transcript)	cell toxicity (DM adipocytes)	GAS5 levels (GAS5 [2])
C[C@H]1CN(C(=O)CC2CC2)CC(=O)N[C@@H](CCC(=O)O)CN(C(=O)CCC2CCCCC2)CC(=O)N[C@@H](Cc2ccccc2)CN(CC(N)=O)C(=O)CCSCc2ccc(cc2)C(=O)N[C@@H](Cc2ccccc2)CN(C(=O)CCC(=O)O)CC(=O)N1 [Formula 14]	able to bind GAS5			
CC(C)C[C@H]1CN(C(=O)CC2CC2)CC(=O)N[C@@H](CCCCN)CN(C(=O)CCc2ccccc2)CC(=O)N[C@@H](Cc2ccccc2)CN(CC(N)=O)C(=O)CCSCc2ccc(cc2)C(=O)N[C@@H](Cc2ccccc2)CN(C(=O)CC2CC2)CC(=O)N1 [Formula G5-1397]	able to bind GAS5	bound to GAS5 transcript; also recorded: GAS5 transcript binding	without causing cell toxicity	substantially increases GAS5 levels
